In patent US20210330731A1, “TOPICAL SALVE FORMULATIONS FOR DERMAL ALKALOID DELIVERY” (priority 2020, published 2021):

Test: Topical application of alkaloid-containing analgesic salve formulations, observed pain relief
Format: in vivo, patients
Details: for notable effect of secondary ingredient added to formulation: secondary ingredient in topical formulation
From the text: In most embodiments, three-cup batches of oil and wax (e.g.; 2¼ cup oil, ¾ cup wax or other hardening agent) were infused with an extract produced from at least two ounces of plant matter processed using the above method. In a preferred embodiment, an extract produced from around 4.5 to 6 ounces of herbal material yielded the best results as far as optimal pain relief for the amount of product used.
In one embodiment, a formulation for a kratom alkaloid-based topical product involves extracting alkaloids from kratom powder into a food-grade oil (such as coconut oil) at 160° F. The powder may be combined with a lecithin (such as a sunflower lecithin) to aid in extraction.
In a further embodiment, a formulation involves extracting alkaloids from kratom powder into a food-grade oil at 160° F. for two hours and adding one or more carrier oils. The carrier oils comprise black pepper oil, turmeric oil, peppermint oil and lemon oil. A hardening agent, such as beeswax, may also be added. Piperine (a black pepper alkaloid), curcumin (a metabolite of turmeric), peppermint oil, and lemon oil are intended as dermal carriers and absorption enhancers. Piperine is known to increase curcumin bioavailability.
In a further embodiment, a severe pain relief formulation involves extracting alkaloids from kratom powder into a food-grade oil at 160° F. for two hours and adding one or more carrier oils. The carrier oils comprise black pepper oil, turmeric oil, peppermint oil (alternately, eucalyptus or naioli oils will suffice since they contain similar compounds), lemon oil, magnesium oil, St John's Wort oil, arnica oil, parsley oil, cinnamon oil, lemongrass oil, ginger oil, arnica oil (comprises helenalin, fatty acids (inolenic, palmitic, linoleic, and myristic) thymol, ethers of thymol, thymohydroquinone dimethyl ether, and phlorol isobutyrate (2%)), Ylang Ylang (Cananga odorata) oil (comprises linalool, caryophyllene and germacrene), and/or Black Seed oil (comprises anethole, p-cymene, limonene, carvone and thymoquinone). […] FIG. 2 provides a table 200 listing primary herbal extract sources 210 and secondary ingredients 220, including but not limited to dermal absorption enhancers 222, alkaloid potentiators 224, neuropathic relief agents 226, and anti-inflammation agents 228.
In yet another embodiment, a severe pain and inflammation relief formulation involves extracting alkaloids from kratom powder into a food-grade oil at 160° F. for two hours and adding one or more carrier oils. The carrier oils comprise black pepper oil, turmeric oil, peppermint oil, lemon oil, magnesium oil, St. John's Wort oil, arnica oil, and ginger oil. The kratom powder may be a combination of concentrated kratom extract and kratom powder. […]

Molecule | increase of the effect of a formulation (duration) (added to the formulation as alkaloid potentiator) | notable effect of secondary ingredient added to formulation
Oc1ccc(/C=C/c2cc(O)cc(O)c2)cc1 [Trans-resveratrol] | approximately two hours or longer | –
O=c1c(O)c(-c2ccc(O)c(O)c2)oc2cc(O)cc(O)c12 [quercetin] | – | decreased pain and inflammation
copper salicylate | – | minor improvement to pain relief
magnesium stearate | – | relieved muscle spasms
